According to patent publication US5324633A, “Method and apparatus for measuring binding affinity” (Affymax Technologies N.V., priority 1991, dated 1994):
Where two headings read alike, the source gives them in different places. Where no end group is shown, it is not given here.

Experiments:
[1] = system: Herz antibody; test: Binding affinity of fluorescein-labelled receptor to surface-bound peptide, confocal fluorescence intensity at varying receptor concentrations
Description: At step 104 the array or arrays of polymers are exposed to a receptor at a first solution concentration [R]1. According to some embodiments the receptor is marked with an appropriate label such as a fluorescein tag. Fluorescent tags are preferred because the measurements herein are usually taken with a receptor solution in contact with the immobilized ligands to ensure that the immobilized ligand are in equilibrium with the receptor. […] Confocal microscopy provides one preferred method of distinguishing between surface receptor fluorescence and background fluorescence from bulk solution receptors, due to the limited depth of field of a confocal microscope. Because the microscope cannot completely exclude fluorescence from bulk solution, contributions of the bulk fluorescence can be eliminated by comparing areas of derivatized and underivatized substrates. This method for eliminating background fluorescence may not be accurate at high receptor concentrations, when non-specific receptor binding to underivatized substrates becomes non-negligible.
At step 106 the array of the polymers is exposed to the receptor, for a time sufficient to allow receptor-ligand interaction, preferably to equilibrium conditions, and at step 108 the fluorescence intensity of the receptor at each of the concentrations [R]n is determined for each of the ligands on each array. […]
At step 110 this information is fit to analysis equations or otherwise processed for determination of the binding affinity of the receptor to the various ligands on the substrate and at step 112 the Kd values, among others, are extracted. In a most preferred embodiment the data are used to determine binding affinity by determining the slope of a best fit line through a plot having, on the y-axis, the ratio of fluorescence intensity to receptor concentration and, on the x-axis, the fluorescence intensity. […] To faciltate comparison to other experiments, one can plot normalized fluorescence intensity on the y axis or receptor concentration on the x axis. […]

[2] = molecular target: Herz antibody; conditions: solution, comparison value, cited from earlier work

Row | Substance | binding affinity by interpolating plot of relative fluorescence intensity vs log10 receptor concentration (FIG. 5) ([1]; interpolated between 10^-8 M and 10^-9 M curves, peptide synthesized as free peptide then immobilized on surface) | Kd from slope of best fit line, ratio of fluorescence intensity to receptor concentration vs fluorescence intensity (FIG. 4) ([1]; peptide synthesized on substrate, equilibrium over about 24 hours, non-derivatized substrate background subtracted) [µM] | Kd ([2]; read-out: Kd value from other solution experiments) [µM] | Kd ([1]; sequences synthesized on different chips, exposed to Herz antibody, read-out: Kd / binding affinity from isotherms (FIG. 6)) [µM] | Kd ([2]; read-out: binding affinity value from other solution experiments) [µM]
1 | YGGFL | about 1.8×10^-8 M | 0.018 | 0.01 |  | 
2 | YGTFL (not fully specified) |  |  |  | ~0.7 | 0.5
